Earlier results as cited in article PMC2981068 (Journal of medicinal chemistry, 2010).
Marks after values point to notes of the source that are not given here.

What was measured:
[1] = tested on: E. faecalis (VanA, strain BM4166), vancomycin- and teicoplanin-resistant; conditions: footnotes d, ref [7]–[8], [4]
[2] = tested on: E. faecalis (VanB, strain ATCC 51299), vancomycin-resistant and teicoplanin-sensitive; conditions: footnotes d, ref [7]–[8], [4]
[3] = tested on: Enterocococci bacterial strains (VanA and VanB); conditions: resistant vs sensitive bacteria; ref [1d]
[4] = tested on: Staphylococcus aureus (strain ATCC 25923), vancomycin-sensitive; conditions: reference not given, ref [1a],[6] as in b5
[5] = computationally determined, relative to 2 with ligand 3; ref [11]

Substance | MIC E. faecalis (VanA) (value in parentheses) [1] | MIC E. faecalis (VanB) (value in parentheses) [2] [µg/mL] | drop in antimicrobial activity on D-Ala to D-Lac change [3] [fold] | MIC for sensitive strain (comparator in text) [4] [µg/mL] | ΔΔGb cal, ligand 3 [5]
Vancomycin [Compound 1] | 2000 (2000) ^e μg/mL | 125 | 1000 |  | 
chlorobiphenyl vancomycin [Compound 8] |  |  |  | 0.03 | 
vancomycin aglycon [Compound 2] | 640 (640) ^d, ^e μg/mL | 80 |  |  | 0.0 (0.0) ^d kcal/mol
